Results on 1 substance are retold here after patent US5618675A, “Methods and compositions for detecting lipopolysaccharides using CAP18 fragments” (Panorama Research, Inc., dated 1997).

For the assay, the system named is RAW 264.7 cells. In words: Reversal of LPS-induced inhibition of RAW 264.7 cell proliferation. The assay is classed as cell-based, murine. Conditions: 5 ng/ml of LPS; FIG. 8. How it is done:
When LPS is added to RAW 264.7 cells it causes a dose-dependent inhibition of proliferation with differentiation of the cells into a macrophage phenotype.

In the case of “RNIP: reactive nitrogen inhibitory protein, amino acids 135-171 of SEQ ID NO:4 (rabbit CAP18 C-terminus); purified from granulocytes or synthetic (#197) (GLRKRLRKFRNKIKEKLKKIGQKIQGLLPKLAPRTDY)”, the “effect on LPS-induced inhibition of proliferation” value is “reverses the inhibition of proliferation”.
